{"source": "ChEMBL document CHEMBL5696442", "about": "“Discovery of type II inhibitors of TGFβ-activated kinase 1 (TAK1) and mitogen-activated protein kinase kinase kinase kinase 2 (MAP4K2)” (J Med Chem, 2015)", "key": {"[1]": {"biological_target": "5'-AMP-activated protein kinase catalytic subunit alpha-1 (Homo sapiens) (UniProt Q13131)", "test": "Inhibition of AMPKa1 Lys1 labeling site in human Huh-7 cell lysate at 1 uM by KiNativ Profiling analysis relative to control", "format": "subcellular"}, "[2]": {"biological_target": "Protein kinase C beta type (Homo sapiens) (UniProt P05771)", "sequence (P05771 2-671 limits assumed)": "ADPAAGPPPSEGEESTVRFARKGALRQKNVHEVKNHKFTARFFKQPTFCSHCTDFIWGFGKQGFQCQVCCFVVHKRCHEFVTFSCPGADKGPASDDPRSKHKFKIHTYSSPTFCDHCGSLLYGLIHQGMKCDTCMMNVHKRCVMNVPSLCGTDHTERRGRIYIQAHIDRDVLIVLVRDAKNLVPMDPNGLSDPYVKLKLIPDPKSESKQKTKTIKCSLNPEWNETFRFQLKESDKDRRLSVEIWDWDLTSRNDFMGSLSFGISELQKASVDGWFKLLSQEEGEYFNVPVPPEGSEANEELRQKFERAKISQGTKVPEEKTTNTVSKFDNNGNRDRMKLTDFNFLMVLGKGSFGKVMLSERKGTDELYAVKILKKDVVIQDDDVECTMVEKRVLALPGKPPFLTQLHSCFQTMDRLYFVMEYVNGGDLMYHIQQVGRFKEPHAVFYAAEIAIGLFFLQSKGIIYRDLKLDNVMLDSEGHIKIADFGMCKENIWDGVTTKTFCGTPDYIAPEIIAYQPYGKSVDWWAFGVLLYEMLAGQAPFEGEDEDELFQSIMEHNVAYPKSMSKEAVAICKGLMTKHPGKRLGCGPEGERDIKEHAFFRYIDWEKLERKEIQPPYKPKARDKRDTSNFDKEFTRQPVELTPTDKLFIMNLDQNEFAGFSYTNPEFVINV", "test": "Inhibition of PKCb Lys2 labeling site in human Huh-7 cell lysate at 1 uM by KiNativ Profiling analysis relative to control", "format": "subcellular"}, "[3]": {"biological_target": "5'-AMP-activated protein kinase catalytic subunit alpha-2 (Homo sapiens) (UniProt P54646)", "sequence (P54646 whole entry, looked up)": "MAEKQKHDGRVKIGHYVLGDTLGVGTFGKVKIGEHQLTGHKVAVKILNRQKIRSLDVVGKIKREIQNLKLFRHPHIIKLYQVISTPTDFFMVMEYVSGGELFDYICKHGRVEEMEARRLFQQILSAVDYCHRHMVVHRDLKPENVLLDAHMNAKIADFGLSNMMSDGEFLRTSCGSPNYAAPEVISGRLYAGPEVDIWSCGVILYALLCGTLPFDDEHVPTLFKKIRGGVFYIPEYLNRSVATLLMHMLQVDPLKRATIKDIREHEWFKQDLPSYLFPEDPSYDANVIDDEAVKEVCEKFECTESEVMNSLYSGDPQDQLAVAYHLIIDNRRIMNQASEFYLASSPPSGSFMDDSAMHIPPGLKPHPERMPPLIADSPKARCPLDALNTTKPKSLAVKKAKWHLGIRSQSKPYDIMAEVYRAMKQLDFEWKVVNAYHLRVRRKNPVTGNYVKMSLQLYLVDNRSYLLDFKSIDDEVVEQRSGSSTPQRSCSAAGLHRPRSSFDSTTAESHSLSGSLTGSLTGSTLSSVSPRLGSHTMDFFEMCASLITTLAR", "test": "Inhibition of AMPK-alpha2 (unknown origin) at 10 uM by Ambit Kinomescan binding assay"}, "[4]": {"biological_target": "MAST1/MAST2 (Homo sapiens) (UniProt Q9Y2H9+Q6P0Q8)", "sequence (Q6P0Q8 whole entry, looked up)": "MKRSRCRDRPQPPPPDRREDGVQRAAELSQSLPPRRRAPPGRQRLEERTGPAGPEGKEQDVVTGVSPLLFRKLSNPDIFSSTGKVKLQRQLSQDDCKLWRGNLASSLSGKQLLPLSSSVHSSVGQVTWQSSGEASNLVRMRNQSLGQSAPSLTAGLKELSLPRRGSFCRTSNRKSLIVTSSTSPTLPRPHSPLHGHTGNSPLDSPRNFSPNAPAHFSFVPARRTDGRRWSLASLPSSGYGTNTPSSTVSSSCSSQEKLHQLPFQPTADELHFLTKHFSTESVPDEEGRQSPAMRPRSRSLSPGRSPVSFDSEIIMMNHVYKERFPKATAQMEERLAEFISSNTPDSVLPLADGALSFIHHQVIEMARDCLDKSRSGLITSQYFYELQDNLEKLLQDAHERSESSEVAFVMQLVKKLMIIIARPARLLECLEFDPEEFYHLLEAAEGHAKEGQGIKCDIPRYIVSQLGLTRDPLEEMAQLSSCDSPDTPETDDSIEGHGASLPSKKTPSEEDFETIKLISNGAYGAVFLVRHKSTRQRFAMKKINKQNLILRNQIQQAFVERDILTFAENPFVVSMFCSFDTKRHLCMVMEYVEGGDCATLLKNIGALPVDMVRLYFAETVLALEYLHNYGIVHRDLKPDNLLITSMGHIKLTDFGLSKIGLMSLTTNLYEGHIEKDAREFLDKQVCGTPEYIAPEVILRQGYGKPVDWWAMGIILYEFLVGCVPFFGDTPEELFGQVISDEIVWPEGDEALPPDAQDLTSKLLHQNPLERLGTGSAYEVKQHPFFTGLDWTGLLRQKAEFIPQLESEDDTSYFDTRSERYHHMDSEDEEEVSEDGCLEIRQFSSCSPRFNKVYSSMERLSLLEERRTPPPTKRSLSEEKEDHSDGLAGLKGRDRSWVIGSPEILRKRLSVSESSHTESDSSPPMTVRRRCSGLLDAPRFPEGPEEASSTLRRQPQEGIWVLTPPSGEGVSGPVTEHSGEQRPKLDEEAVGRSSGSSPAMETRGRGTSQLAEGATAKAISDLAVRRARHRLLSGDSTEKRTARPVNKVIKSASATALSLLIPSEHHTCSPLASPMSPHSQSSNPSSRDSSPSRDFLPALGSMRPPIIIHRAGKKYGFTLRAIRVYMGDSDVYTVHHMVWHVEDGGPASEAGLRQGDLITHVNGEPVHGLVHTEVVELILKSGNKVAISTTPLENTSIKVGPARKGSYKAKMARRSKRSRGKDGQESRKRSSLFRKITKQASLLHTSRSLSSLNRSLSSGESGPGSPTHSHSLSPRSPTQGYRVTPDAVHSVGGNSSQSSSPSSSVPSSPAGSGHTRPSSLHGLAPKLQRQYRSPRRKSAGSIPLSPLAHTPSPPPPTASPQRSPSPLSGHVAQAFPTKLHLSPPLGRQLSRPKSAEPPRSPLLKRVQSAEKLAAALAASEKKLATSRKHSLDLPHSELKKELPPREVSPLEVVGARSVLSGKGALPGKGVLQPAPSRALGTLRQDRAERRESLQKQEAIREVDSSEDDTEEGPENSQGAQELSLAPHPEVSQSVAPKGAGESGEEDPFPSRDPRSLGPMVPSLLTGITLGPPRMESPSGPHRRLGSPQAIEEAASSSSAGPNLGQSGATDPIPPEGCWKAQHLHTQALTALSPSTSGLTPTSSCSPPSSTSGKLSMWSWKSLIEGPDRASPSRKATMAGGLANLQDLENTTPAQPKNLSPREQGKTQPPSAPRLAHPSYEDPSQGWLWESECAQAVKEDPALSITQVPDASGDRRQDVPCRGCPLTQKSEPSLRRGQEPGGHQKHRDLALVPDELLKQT", "sequence (Q9Y2H9 whole entry, looked up)": "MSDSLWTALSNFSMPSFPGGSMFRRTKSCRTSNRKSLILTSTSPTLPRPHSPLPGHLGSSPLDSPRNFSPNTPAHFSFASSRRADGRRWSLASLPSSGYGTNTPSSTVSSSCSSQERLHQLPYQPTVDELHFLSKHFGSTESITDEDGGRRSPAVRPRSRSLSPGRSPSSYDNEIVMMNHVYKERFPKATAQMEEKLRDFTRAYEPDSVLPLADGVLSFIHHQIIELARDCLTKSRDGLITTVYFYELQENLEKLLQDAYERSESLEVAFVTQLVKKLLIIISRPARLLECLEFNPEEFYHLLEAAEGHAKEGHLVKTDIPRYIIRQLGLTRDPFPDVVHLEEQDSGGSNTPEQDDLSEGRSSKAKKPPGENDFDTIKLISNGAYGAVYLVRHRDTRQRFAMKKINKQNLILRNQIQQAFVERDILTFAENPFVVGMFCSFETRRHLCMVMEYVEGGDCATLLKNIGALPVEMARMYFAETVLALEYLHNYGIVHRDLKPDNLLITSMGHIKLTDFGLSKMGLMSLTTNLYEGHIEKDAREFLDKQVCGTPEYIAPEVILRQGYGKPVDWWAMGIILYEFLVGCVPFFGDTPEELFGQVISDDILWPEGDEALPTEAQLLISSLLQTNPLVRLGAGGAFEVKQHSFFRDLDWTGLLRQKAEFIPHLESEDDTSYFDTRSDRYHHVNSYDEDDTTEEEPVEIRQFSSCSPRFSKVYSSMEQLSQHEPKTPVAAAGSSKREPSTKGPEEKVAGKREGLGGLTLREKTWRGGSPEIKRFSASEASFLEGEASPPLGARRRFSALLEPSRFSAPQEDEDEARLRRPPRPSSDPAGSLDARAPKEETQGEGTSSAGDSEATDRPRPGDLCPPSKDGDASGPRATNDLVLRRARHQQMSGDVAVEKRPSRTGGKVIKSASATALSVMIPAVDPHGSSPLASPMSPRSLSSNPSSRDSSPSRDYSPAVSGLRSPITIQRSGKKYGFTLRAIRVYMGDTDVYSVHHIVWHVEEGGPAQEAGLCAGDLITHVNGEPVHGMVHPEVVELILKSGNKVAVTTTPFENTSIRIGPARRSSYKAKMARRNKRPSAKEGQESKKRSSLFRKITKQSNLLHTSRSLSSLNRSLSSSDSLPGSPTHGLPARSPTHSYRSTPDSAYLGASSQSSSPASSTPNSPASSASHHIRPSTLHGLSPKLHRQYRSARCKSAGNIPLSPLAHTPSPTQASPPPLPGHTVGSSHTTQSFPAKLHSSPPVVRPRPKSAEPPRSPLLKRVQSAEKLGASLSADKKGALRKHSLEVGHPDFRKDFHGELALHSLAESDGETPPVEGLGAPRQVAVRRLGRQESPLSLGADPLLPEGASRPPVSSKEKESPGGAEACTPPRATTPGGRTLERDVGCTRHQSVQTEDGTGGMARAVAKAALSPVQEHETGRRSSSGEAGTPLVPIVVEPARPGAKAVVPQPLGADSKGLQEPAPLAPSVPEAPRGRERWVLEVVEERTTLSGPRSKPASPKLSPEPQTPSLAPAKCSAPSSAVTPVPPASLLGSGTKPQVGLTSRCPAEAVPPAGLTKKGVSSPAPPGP", "test": "Inhibition of MAST1/2 K2 labeling site in human Huh-7 cells at 10 uM by KiNativ Profiling analysis relative to control", "format": "cell-based"}, "[5]": {"biological_target": "T1, Serine/threonine-protein kinase LATS1 (Homo sapiens) (UniProt O95835)", "T1 sequence (whole entry)": "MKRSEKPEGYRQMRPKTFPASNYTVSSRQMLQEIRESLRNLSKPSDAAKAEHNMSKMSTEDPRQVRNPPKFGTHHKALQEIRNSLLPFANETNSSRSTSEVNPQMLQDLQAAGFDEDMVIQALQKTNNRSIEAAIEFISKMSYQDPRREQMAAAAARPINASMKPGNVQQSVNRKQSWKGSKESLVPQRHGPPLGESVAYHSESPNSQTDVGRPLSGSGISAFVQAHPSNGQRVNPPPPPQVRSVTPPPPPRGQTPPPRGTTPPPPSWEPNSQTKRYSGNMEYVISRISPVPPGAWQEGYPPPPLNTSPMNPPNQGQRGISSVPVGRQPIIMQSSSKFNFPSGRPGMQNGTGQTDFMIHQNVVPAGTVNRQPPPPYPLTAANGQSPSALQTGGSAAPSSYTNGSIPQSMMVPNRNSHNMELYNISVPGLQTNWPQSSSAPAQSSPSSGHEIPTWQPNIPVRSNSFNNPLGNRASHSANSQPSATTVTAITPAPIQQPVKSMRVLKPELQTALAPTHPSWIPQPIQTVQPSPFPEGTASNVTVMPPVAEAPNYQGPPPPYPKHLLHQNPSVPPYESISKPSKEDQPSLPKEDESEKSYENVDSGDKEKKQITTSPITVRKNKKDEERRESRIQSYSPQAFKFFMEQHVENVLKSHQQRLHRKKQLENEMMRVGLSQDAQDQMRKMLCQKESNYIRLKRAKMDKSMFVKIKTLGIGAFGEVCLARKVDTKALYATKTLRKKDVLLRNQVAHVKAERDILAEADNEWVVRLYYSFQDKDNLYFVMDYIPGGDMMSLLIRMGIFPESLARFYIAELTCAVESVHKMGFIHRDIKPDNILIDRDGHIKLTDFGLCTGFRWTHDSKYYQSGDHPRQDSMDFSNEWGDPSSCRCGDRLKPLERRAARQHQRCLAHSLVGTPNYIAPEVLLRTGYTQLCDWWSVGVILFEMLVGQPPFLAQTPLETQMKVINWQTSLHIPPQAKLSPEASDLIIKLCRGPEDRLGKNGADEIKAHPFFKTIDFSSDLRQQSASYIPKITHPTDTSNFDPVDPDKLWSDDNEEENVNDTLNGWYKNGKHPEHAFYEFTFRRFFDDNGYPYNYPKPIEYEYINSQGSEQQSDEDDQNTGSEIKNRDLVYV", "test": "Inhibition of LATS1 Lys2 labeling site in human A-375 cells at 0.05 uM by KiNativ Profiling analysis relative to control", "format": "cell-based"}, "[6]": {"biological_target": "T2, Mitogen-activated protein kinase kinase kinase 6 (Homo sapiens) (UniProt O95382)", "T2 sequence (whole entry)": "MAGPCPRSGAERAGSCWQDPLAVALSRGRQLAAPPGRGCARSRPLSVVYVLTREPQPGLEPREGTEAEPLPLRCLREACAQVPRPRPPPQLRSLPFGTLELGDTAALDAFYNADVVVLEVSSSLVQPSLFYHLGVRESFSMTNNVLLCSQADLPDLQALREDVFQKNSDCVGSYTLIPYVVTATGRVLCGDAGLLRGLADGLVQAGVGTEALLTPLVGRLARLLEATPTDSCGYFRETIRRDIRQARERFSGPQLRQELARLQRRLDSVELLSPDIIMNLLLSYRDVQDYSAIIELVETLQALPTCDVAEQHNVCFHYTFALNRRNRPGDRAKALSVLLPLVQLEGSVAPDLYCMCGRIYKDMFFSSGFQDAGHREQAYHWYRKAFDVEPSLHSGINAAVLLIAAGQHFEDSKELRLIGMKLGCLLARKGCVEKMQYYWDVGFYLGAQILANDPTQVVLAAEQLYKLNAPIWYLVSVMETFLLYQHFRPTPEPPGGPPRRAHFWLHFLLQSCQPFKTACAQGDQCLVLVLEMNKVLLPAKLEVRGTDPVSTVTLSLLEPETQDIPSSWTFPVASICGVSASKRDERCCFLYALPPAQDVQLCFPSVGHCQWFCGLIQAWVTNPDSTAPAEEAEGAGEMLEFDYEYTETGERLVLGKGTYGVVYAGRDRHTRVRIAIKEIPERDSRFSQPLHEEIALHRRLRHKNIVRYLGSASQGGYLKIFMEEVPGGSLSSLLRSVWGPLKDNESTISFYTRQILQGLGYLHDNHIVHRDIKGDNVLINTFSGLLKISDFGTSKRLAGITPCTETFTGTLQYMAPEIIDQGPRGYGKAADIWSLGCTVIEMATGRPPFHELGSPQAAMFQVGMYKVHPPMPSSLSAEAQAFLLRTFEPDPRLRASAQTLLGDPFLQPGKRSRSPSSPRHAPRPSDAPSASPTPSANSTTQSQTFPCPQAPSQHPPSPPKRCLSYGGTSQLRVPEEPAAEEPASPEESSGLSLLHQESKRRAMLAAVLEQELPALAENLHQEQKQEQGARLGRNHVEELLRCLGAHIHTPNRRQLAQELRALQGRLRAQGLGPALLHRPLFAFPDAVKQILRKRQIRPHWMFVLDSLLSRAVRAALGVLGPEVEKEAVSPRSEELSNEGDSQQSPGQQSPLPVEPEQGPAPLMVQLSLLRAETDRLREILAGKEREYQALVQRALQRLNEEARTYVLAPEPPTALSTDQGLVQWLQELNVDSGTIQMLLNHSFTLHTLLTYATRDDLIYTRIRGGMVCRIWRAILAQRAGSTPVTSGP", "test": "Inhibition of MAP3K6 Lys1 labeling site harbouring IAIKEIPER in human A-375 cells at 5 uM by KiNativ Profiling analysis relative to control", "format": "cell-based"}, "[7]": {"biological_target": "SRSF protein kinase 2 (Homo sapiens) (UniProt P78362)", "test": "Inhibition of SRPK2 (unknown origin) at 1 uM by Ambit Kinomescan binding assay relative to control"}}, "note": "The source made the active and inactive calls. The calls are words filed in the database; no cut-off is given here."}
{"smiles": "CNc1cc(Oc2cc(C(=O)Nc3cc(N4CCN(C)CC4)cc(C(F)(F)F)c3)ccc2C)ncn1", "values": [{"measurement": "inhibition", "setting": "[1]", "result": 8.7, "unit": "%"}, {"measurement": "inhibition", "setting": "[2]", "result": -1.2, "unit": "%"}]}
{"smiles": "CCN1CCN(Cc2ccc(NC(=O)c3ccc(C)c(Oc4ccnc5[nH]ccc45)c3)cc2C(F)(F)F)CC1", "values": [{"measurement": "inhibition", "setting": "[3]", "result": "inactive"}, {"measurement": "inhibition", "setting": "[4]", "result": 17.6, "unit": "%"}, {"measurement": "inhibition", "setting": "[5]", "result": 14.5, "unit": "%"}, {"measurement": "inhibition", "setting": "[6]", "result": -0.6, "unit": "%"}]}
{"smiles": "CCN1CCN(Cc2ccc(NC(=O)c3ccc(C)c(/C=C/c4cnc5[nH]ccc5c4OC)c3)cc2C(F)(F)F)CC1", "values": [{"measurement": "inhibition", "setting": "[7]", "result": 76, "unit": "%"}]}
